ChEMBL document CHEMBL5321234, “Discovery of Thieno[3,2-d]pyrimidine derivatives as potent and selective inhibitors of ataxia telangiectasia mutated and Rad3 related (ATR) kinase” (Eur J Med Chem, 2023)

Columns and labels:
[1] = molecular target: Serine/threonine-protein kinase ATR (Homo sapiens, UniProt Q13535); assay: Inhibition of ATR (unknown origin)
LoVo [2] = assay: Antiproliferative activity against human LoVo cells incubated for 72 hrs by CCK-8 assay; assay type: functional, cell-based
[3] = Volume of distribution at steady state in ICR mouse at 1 mg/kg, iv measured upto 24 hrs by LC-MS/MS analysis; assay type: ADME, organism-based; conditions: ICR, in vivo, read-out: Vdss
[4] = Clearance in ICR mouse at 1 mg/kg, iv measured upto 24 hrs by LC-MS/MS analysis; assay type: ADME, organism-based; conditions: ICR, in vivo
[5] = AUC (0 to t) in ICR mouse at 1 mg/kg, iv measured upto 24 hrs by LC-MS/MS analysis; assay type: ADME, organism-based; design: dose 1 mg/kg, time < 24 hrs, route iv; conditions: in vivo
[6] = Half life in ICR mouse at 1 mg/kg, iv measured upto 24 hrs by LC-MS/MS analysis; assay type: ADME, organism-based; conditions: in vivo
[7] = AUC (0 to infinity) in ICR mouse at 10 mg/kg, po measured upto 24 hrs by LC-MS/MS analysis; assay type: ADME, organism-based; design: dose 10 mg/kg, time < 24 hrs, route po; conditions: in vivo
[8] = MRT (0 to infinity) in ICR mouse at 10 mg/kg, po measured upto 24 hrs by LC-MS/MS analysis; assay type: ADME, organism-based; conditions: in vivo
[9] = MRT (0 to t) in ICR mouse at 10 mg/kg, po measured upto 24 hrs by LC-MS/MS analysis; assay type: ADME, organism-based; conditions: in vivo
[10] = Tmax in ICR mouse at 10 mg/kg, po measured upto 24 hrs by LC-MS/MS analysis; assay type: ADME, organism-based; conditions: in vivo
[11] = Cmax in ICR mouse at 1 mg/kg, iv measured upto 24 hrs by LC-MS/MS analysis; assay type: ADME, organism-based; design: time < 24 hrs, dose 1 mg/kg, route iv; conditions: in vivo
[12] = Oral bioavailability in ICR mouse at 10 mg/kg measured upto 24 hrs by LC-MS/MS analysis; assay type: ADME, organism-based; conditions: in vivo
[13] = Cmax in ICR mouse at 10 mg/kg, po measured upto 24 hrs by LC-MS/MS analysis; assay type: ADME, organism-based; design: time < 24 hrs, dose 10 mg/kg, route po; conditions: in vivo
[14] = AUC (0 to infinity) in ICR mouse at 1 mg/kg, iv measured upto 24 hrs by LC-MS/MS analysis; assay type: ADME, organism-based; design: dose 1 mg/kg, time < 24 hrs, route iv; conditions: in vivo
[15] = MRT (0 to infinity) in ICR mouse at 1 mg/kg, iv measured upto 24 hrs by LC-MS/MS analysis; assay type: ADME, organism-based; conditions: ICR, in vivo
[16] = MRT (0 to t) in ICR mouse at 1 mg/kg, iv measured upto 24 hrs by LC-MS/MS analysis; assay type: ADME, organism-based; conditions: in vivo
[17] = Half life in ICR mouse at 10 mg/kg, po measured upto 24 hrs by LC-MS/MS analysis; assay type: ADME, organism-based; conditions: in vivo
[18] = Tmax in ICR mouse at 1 mg/kg, iv measured upto 24 hrs by LC-MS/MS analysis; assay type: ADME, organism-based; conditions: in vivo
[19] = Initial plasma concentration in ICR mouse at 1 mg/kg, iv measured upto 24 hrs by LC-MS/MS analysis; assay type: ADME, organism-based
[20] = AUC (0 to t) in ICR mouse at 10 mg/kg, po measured upto 24 hrs by LC-MS/MS analysis; assay type: ADME, organism-based; design: dose 10 mg/kg, time < 24 hrs, route po; conditions: in vivo
HT-29 = assay: Antiproliferative activity against human HT-29 cells incubated for 72 hrs by CCK-8 assay; assay type: functional, cell-based; conditions: HT-29, 72 h
LoVo [21] = assay: Antitumor activity against human LoVo cells xenografted in BALB/c mouse assessed as tumor growth inhibition at 50 mg/kg, po bid 3 days on/4 days off administered for 21 consecutive days relative to control; assay type: functional; conditions: 504 h, time 21 day, read-out: TGI

Chain of Serine/threonine-protein kinase ATR (Q13535 whole entry): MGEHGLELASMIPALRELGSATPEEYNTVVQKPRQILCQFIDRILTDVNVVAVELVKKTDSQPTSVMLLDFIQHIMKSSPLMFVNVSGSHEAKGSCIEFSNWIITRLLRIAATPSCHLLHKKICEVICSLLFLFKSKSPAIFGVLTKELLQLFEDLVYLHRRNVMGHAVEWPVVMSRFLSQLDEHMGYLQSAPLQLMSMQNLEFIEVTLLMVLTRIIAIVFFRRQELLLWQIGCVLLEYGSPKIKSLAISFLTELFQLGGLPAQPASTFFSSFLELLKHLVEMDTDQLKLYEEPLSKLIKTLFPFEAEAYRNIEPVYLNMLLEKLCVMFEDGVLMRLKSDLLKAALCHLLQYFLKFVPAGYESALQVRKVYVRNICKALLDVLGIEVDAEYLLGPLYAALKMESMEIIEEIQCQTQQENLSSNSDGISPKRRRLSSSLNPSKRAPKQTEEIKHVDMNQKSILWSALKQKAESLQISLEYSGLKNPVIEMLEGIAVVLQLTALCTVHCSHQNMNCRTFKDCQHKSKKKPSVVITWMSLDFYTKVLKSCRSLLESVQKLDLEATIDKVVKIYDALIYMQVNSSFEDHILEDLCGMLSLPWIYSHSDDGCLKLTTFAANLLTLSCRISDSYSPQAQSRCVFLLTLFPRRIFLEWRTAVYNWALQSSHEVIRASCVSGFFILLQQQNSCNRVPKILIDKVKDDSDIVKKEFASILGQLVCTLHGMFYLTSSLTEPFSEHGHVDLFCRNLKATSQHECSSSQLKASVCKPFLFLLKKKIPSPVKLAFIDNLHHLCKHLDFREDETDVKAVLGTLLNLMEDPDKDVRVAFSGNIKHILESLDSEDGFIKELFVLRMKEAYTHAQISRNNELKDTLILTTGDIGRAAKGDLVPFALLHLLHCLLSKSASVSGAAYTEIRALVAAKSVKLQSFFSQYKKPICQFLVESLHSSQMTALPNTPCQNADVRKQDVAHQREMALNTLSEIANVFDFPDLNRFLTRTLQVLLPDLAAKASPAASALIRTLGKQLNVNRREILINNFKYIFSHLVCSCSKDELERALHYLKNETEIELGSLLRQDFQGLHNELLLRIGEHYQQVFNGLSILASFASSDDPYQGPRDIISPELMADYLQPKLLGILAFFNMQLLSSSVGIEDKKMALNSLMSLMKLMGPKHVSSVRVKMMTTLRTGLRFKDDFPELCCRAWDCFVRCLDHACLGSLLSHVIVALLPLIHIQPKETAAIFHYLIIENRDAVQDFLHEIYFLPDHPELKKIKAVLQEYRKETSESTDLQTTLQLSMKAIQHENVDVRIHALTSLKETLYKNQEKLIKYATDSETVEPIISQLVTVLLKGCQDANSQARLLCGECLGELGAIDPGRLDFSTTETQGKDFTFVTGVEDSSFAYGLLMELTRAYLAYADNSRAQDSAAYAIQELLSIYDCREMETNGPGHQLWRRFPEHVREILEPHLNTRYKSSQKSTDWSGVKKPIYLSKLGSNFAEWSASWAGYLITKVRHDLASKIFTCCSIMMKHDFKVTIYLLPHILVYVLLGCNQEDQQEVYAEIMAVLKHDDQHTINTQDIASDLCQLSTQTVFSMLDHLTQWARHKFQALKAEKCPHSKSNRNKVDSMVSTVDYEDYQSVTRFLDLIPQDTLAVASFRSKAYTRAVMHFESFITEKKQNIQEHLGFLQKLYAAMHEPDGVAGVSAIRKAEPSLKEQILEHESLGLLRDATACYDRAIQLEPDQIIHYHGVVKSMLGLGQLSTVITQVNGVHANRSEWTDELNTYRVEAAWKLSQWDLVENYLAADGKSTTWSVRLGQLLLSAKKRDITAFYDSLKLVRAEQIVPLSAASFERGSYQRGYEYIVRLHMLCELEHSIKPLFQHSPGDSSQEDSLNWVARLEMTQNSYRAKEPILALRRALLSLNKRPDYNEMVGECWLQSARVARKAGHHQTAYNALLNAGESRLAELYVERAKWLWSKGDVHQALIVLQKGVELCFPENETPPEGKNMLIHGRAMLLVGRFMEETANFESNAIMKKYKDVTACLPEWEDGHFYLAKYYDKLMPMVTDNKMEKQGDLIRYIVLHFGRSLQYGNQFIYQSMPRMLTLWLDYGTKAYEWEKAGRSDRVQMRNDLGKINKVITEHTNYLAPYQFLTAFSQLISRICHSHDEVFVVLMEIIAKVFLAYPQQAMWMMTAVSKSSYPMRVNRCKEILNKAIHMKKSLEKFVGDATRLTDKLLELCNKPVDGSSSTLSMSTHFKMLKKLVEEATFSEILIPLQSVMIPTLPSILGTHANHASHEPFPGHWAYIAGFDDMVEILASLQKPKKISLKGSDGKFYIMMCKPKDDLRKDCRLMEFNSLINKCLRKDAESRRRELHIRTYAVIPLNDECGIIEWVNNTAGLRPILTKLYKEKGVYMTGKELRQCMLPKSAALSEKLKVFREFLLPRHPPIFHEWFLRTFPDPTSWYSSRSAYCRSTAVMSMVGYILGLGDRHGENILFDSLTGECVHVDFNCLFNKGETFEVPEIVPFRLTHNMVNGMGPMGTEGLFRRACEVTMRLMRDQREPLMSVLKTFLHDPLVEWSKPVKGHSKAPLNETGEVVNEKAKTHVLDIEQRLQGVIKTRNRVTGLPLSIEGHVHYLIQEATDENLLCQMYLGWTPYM

IC50 [1] | IC50 (LoVo [2]) | SMILES | also measured
1 nM | 64 nM | C[C@@H]1COCCN1c1nc(-n2c(N)nc3ccccc32)nc2c(S(C)(=O)=O)csc12 | Vd [3]: 0.827 L/kg; clearance [4]: 74.9 mL/min/kg; AUC(0-t) at 24 h [5]: 221 ng·h/mL; half-life [6]: 7.8 min; AUC(0-inf) [7]: 741 ng·h/mL; MRT inf [8]: 65.4 min; MRT last at 24 h [9]: 61.8 min; Tmax [10]: 15 min; Cmax [11]: 698 ng/mL; bioavailability [12]: 32.8%; Cmax [13]: 994 ng/mL; AUC(0-inf) [14]: 226 ng·h/mL; MRT inf [15]: 10.8 min; MRT last at 24 h [16]: 9.6 min; half-life [17]: 74.4 min; Tmax [18]: 4.8 min; C0 at 24 h [19]: 1080 ng/mL; AUC(0-t) at 24 h [20]: 735 ng·h/mL
5.4 nM | 398 nM | C[C@@H]1COCCN1c1nc(-c2ccnc3[nH]ccc23)nc2c(S(C)(=N)=O)csc12 (stereo partly specified) | –
2.9 nM | 527 nM | C[C@@H]1COCCN1c1nc(-c2cc(C(F)(F)F)cc3[nH]ccc23)nc2c(S(C)(=O)=O)csc12 | –
5 nM | 437 nM | C[C@@H]1COCCN1c1nc(-c2c[nH]c3ccccc23)nc2c(S(C)(=O)=O)csc12 | –
3.6 nM | 119 nM | C[C@@H]1COCCN1c1nc(-c2cc(Cl)cc3[nH]ccc23)nc2c(S(C)(=O)=O)csc12 | –
3.7 nM | 360 nM | C[C@@H]1COCCN1c1nc(-n2c(N)nc3ccc(F)cc32)nc2c(S(C)(=O)=O)csc12 | –
59.2 nM | 1890 nM | C[C@@H]1COCCN1c1nc(-c2cccc3c2CCN3)nc2c(S(C)(=O)=O)csc12 | –
4.7 nM | 151 nM | C[C@@H]1COCCN1c1nc(-c2c(F)ncc3[nH]ccc23)nc2c(S(C)(=O)=O)csc12 | –
3.5 nM | 635 nM | Cc1nc2ccccc2n1-c1nc(N2CCOC[C@H]2C)c2scc(S(C)(=O)=O)c2n1 | –
113 nM | – | CSc1nc2ccccc2n1-c1nc(N2CCOC[C@H]2C)c2scc(S(C)(=O)=O)c2n1 | –
5.7 nM | 224 nM | CNc1nc2ccccc2n1-c1nc(N2CCOC[C@H]2C)c2scc(S(=O)(=O)C(C)C)c2n1 | –
5.5 nM | 117 nM | CNc1nc2ccccc2n1-c1nc(N2CCOC[C@H]2C)c2scc(S(C)(=N)=O)c2n1 (stereo partly specified) | –
24.2 nM | 1500 nM | CNc1nc2ccccc2n1-c1nc(N2CCOC[C@H]2C)c2scc(SC)c2n1 | –
3.1 nM | 266 nM | C[C@@H]1COCCN1c1nc(-c2cccc3[nH]ccc23)nc2c(S(C)(=O)=O)csc12 | –
8.5 nM | 264 nM | CNc1nc2ccccc2n1-c1nc(N2CCOC[C@H]2C)c2scc([S+](C)[O-])c2n1 (stereo partly specified) | –
5.8 nM | 111 nM | C[C@@H]1COCCN1c1nc(-c2ccnc3[nH]ccc23)nc2c(S(C)(=O)=O)csc12 | –
31.5 nM | 370 nM | C[C@@H]1COCCN1c1nc(-c2ccnc3[nH]ccc23)nc2c(C(N)=O)csc12 | –
4.5 nM | 89 nM | CCS(=O)(=O)c1csc2c(N3CCOC[C@H]3C)nc(-n3c(NC)nc4ccccc43)nc12 | –
16.8 nM | 626 nM | CCCS(=O)(=O)c1csc2c(N3CCOC[C@H]3C)nc(-n3c(NC)nc4ccccc43)nc12 | –
108 nM | – | C=C(C)c1csc2c(N3CCOC[C@H]3C)nc(-c3ccnc4[nH]ccc34)nc12 | –
2.3 nM | 648 nM | C[C@@H]1COCCN1c1nc(-n2cnc3ccccc32)nc2c(S(C)(=O)=O)csc12 | –
52.6 nM | 2510 nM | C[C@@H]1COCCN1c1nc(-c2ccnc3[nH]ccc23)nc2c(C#N)csc12 | –
– | 41 nM | C[C@@H]1COCCN1c1cc(-c2ccnn2C)c2ccnc(-c3ccn[nH]3)c2n1 [ELIMUSERTIB] | inhibition in vivo at 50 mg/kg (LoVo [21]): 65%

Continued, compound first:

SMILES | IC50 [1] | IC50 (LoVo [2]) | also measured
CC(O)c1csc2c(N3CCOC[C@H]3C)nc(-c3ccnc4[nH]ccc34)nc12 (stereo partly specified) | 19.2 nM | 694 nM | –
C[C@@H]1COCCN1c1nc(-n2c(N)nc3c(F)cccc32)nc2c(S(C)(=O)=O)csc12 | 2 nM | 381 nM | –
C[C@@H]1COCCN1c1nc(-n2c(C(F)F)nc3ccccc32)nc2c(S(C)(=O)=O)csc12 | 2.8 nM | 177 nM | –
CCP(=O)(CC)c1csc2c(N3CCOC[C@H]3C)nc(-n3c(NC)nc4ccccc43)nc12 | 6.2 nM | 371 nM | –
C[C@@H]1COCCN1c1nc(-n2c(=O)[nH]c3ccccc32)nc2c(S(C)(=O)=O)csc12 | 123 nM | > 10000 nM | –
CC(=O)Nc1nc2ccccc2n1-c1nc(N2CCOC[C@H]2C)c2scc(S(C)(=O)=O)c2n1 | 13.2 nM | 125 nM | –
C[C@@H]1COCCN1c1nc(-c2ccnc3[nH]ccc23)nc2c(C(C)(C)O)csc12 | 7.9 nM | 221 nM | –
C[C@@H]1COCCN1c1nc(-n2c(N(C)C)nc3ccccc32)nc2c(S(C)(=O)=O)csc12 | 233 nM | – | –
C[C@@H]1COCCN1c1nc(-n2c(N)nc3cc(F)ccc32)nc2c(S(C)(=O)=O)csc12 | 1.2 nM | 73 nM | –
C[C@@H]1COCCN1c1nc(-c2cc(F)cc3[nH]ccc23)nc2c(S(C)(=O)=O)csc12 | 3.1 nM | 259 nM | –
C[C@@H]1COCCN1c1nc(-c2ccnc3[nH]ccc23)nc2ccsc12 | 17.8 nM | 3340 nM | –
CC(=O)c1csc2c(N3CCOC[C@H]3C)nc(-c3ccnc4[nH]ccc34)nc12 | 35.3 nM | 931 nM | –
CCc1nc2ccccc2n1-c1nc(N2CCOC[C@H]2C)c2scc(S(C)(=O)=O)c2n1 | 3.8 nM | 657 nM | –
CNc1nc2ccccc2n1-c1nc(N2CCOC[C@H]2C)c2scc(S(=O)(=O)C3CC3)c2n1 | 2.8 nM | 107 nM | –
C[C@@H]1COCCN1c1nc(-c2cccc3[nH]ncc23)nc2c(S(C)(=O)=O)csc12 | 9.6 nM | 391 nM | –
CNc1nc2ccccc2n1-c1nc(N2CCOC[C@H]2C)c2scc(P(C)(C)=O)c2n1 | 6.2 nM | 113 nM | –
C[C@@H]1COCCN1c1nc(-n2nnc3ccccc32)nc2c(S(C)(=O)=O)csc12 | 47 nM | – | –
C[C@@H]1COCCN1c1nc(-c2cccc3c2CC(=O)N3)nc2c(S(C)(=O)=O)csc12 | 159 nM | – | –
CC(C)n1c(=O)n(C)c2cnc3cc(F)c(-c4ccc(OCCCN5CCCCC5)nc4)cc3c21 [AZD-1390] | – | – | IC50 (HT-29): > 10000 nM
